Measured values published in PubChem BioAssay (NCI).
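Briefly, cells in 96-well plates were exposed to five compound concentrations for 48 h, and endpoints were estimated by linear interpolation. Abbreviation: GI50, concentration required for 50% inhibition of growth. TGI marks complete inhibition of growth.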

What was measured:
Assay in all cases: NCI anticancer screen, dose series, 48 h
MCF7 breast = test system: MCF7 breast
MDA-MB-435 = test system: MDA-MB-435
SF-539 CNS = test system: SF-539 CNS
SK-MEL-28 melanoma = test system: SK-MEL-28 melanoma
SK-MEL-5 melanoma = test system: SK-MEL-5 melanoma
T-47D breast = test system: T-47D breast

Q: With `Cc1ccc(NCSc2ccc(Cl)cc2)cc1` as the molecule, how does the GI50 (MCF7 breast) read?
A: > 100 µM

Q: What about the TGI (MCF7 breast) of the same molecule?
A: > 100 µM

Q: And the GI50 (MDA-MB-435)?
A: 9.99 µM

Q: And the TGI (MDA-MB-435)?
A: > 100 µM

Q: And the GI50 (SF-539 CNS)?
A: 22.9 µM

Q: What about the TGI (SF-539 CNS) of the same molecule?
A: > 100 µM

Q: And the GI50 (SK-MEL-28 melanoma)?
A: > 100 µM

Q: What about the TGI (SK-MEL-28 melanoma) of the same molecule?
A: > 100 µM

Q: What about the GI50 (SK-MEL-5 melanoma) of the same molecule?
A: > 100 µM

Q: And the TGI (SK-MEL-5 melanoma)?
A: > 100 µM

Q: What about the GI50 (T-47D breast) of the same molecule?
A: 9.55 µM

Q: And the TGI (T-47D breast)?
A: > 100 µM

Q: `CC[C@@]1(OC(=O)CN)C(=O)OCc2c1cc1n(c2=O)Cc2cc3cc(N)ccc3nc2-1` was tested. Which GI50 (MCF7 breast) did it give?
A: < 0.01 µM

Q: And the TGI (MCF7 breast)?
A: > 100 µM

Q: What about the GI50 (MDA-MB-435) of the same molecule?
A: 0.0802 µM

Q: What about the TGI (MDA-MB-435) of the same molecule?
A: 0.381 µM

Q: And the GI50 (SF-539 CNS)?
A: < 0.01 µM

Q: And the TGI (SF-539 CNS)?
A: 0.0126 µM

Q: What about the GI50 (SK-MEL-28 melanoma) of the same molecule?
A: 0.753 µM

Q: What about the TGI (SK-MEL-28 melanoma) of the same molecule?
A: > 100 µM

Q: What about the GI50 (SK-MEL-5 melanoma) of the same molecule?
A: 0.0181 µM

Q: And the TGI (SK-MEL-5 melanoma)?
A: 0.141 µM

Q: What about the GI50 (T-47D breast) of the same molecule?
A: < 0.0359 µM

Q: What about the TGI (T-47D breast) of the same molecule?
A: > 100 µM

Q: What does the source list for `CCCC/C(=N\N=C(N)N)c1ccc(F)cc1`?
A: GI50 (MCF7 breast): 0.758 µM; TGI (MCF7 breast): 11.9 µM; GI50 (MDA-MB-435): 0.381 µM; TGI (MDA-MB-435): 2.22 µM; GI50 (SF-539 CNS): 2.77 µM; TGI (SF-539 CNS): 8.59 µM; GI50 (SK-MEL-28 melanoma): 4.21 µM; TGI (SK-MEL-28 melanoma): 17.6 µM; GI50 (SK-MEL-5 melanoma): 1.48 µM; TGI (SK-MEL-5 melanoma): 4.27 µM; GI50 (T-47D breast): 2.61 µM; TGI (T-47D breast): 15.6 µM

Q: `CC[C@]12C=CCN3CC[C@]4(C(=C(C(=O)OC)C1)Nc1cc(O)ccc14)[C@@H]32` was tested. Which GI50 (MCF7 breast) did it give?
A: 19.1 µM

Q: What about the TGI (MCF7 breast) of the same molecule?
A: 45.5 µM

Q: What about the GI50 (MDA-MB-435) of the same molecule?
A: 3.63 µM

Q: What about the TGI (MDA-MB-435) of the same molecule?
A: 16.8 µM

Q: And the GI50 (SF-539 CNS)?
A: 15.1 µM

Q: What about the TGI (SF-539 CNS) of the same molecule?
A: 30.1 µM

Q: And the GI50 (SK-MEL-28 melanoma)?
A: 17 µM

Q: What about the TGI (SK-MEL-28 melanoma) of the same molecule?
A: 42.5 µM

Q: What about the GI50 (SK-MEL-5 melanoma) of the same molecule?
A: 14.8 µM

Q: What about the TGI (SK-MEL-5 melanoma) of the same molecule?
A: 28.3 µM

Q: What about the GI50 (T-47D breast) of the same molecule?
A: 22.4 µM

Q: And the TGI (T-47D breast)?
A: 87.7 µM

Q: What does the source list for `O=C(/C=C/N1CCN(c2cccc(C(F)(F)F)c2)CC1)c1ccc(Cl)cc1Cl`?
A: GI50 (MCF7 breast): 24.7 µM; TGI (MCF7 breast): 60.7 µM; GI50 (MDA-MB-435): 25.6 µM; TGI (MDA-MB-435): 44.6 µM; GI50 (SF-539 CNS): 24.8 µM; TGI (SF-539 CNS): 51.3 µM; GI50 (SK-MEL-28 melanoma): 21.1 µM; TGI (SK-MEL-28 melanoma): 43.9 µM; GI50 (SK-MEL-5 melanoma): 19.2 µM; TGI (SK-MEL-5 melanoma): 36.9 µM; GI50 (T-47D breast): 82.8 µM; TGI (T-47D breast): > 100 µM

Q: How did the GI50 (MCF7 breast) turn out when `COC(=O)c1cc(Nc2ccc(O)c3c2C(=O)c2c([N+](=O)[O-])ccc(O)c2C3=O)cc(C(=O)OC)c1` was run?
A: 4.3 µM

Q: What about the TGI (MCF7 breast) of the same molecule?
A: > 100 µM

Q: What about the GI50 (SF-539 CNS) of the same molecule?
A: 60 µM

Q: What about the TGI (SF-539 CNS) of the same molecule?
A: > 100 µM

Q: What about the GI50 (T-47D breast) of the same molecule?
A: 4.78 µM

Q: What about the TGI (T-47D breast) of the same molecule?
A: > 100 µM

Q: Which GI50 (MCF7 breast) does the source give for `CC(C)(C)n1cc(-c2ccnc(NCCNS(=O)(=O)c3ccc(Br)cc3)c2)c(-c2cccc(O)c2)n1` here?
A: 1.48 µM

Q: What about the TGI (MCF7 breast) of the same molecule?
A: 3.7 µM

Q: What about the GI50 (MDA-MB-435) of the same molecule?
A: 1.78 µM

Q: What about the TGI (MDA-MB-435) of the same molecule?
A: 3.35 µM

Q: And the GI50 (SF-539 CNS)?
A: 1.54 µM

Q: And the TGI (SF-539 CNS)?
A: 3.11 µM

Q: What about the GI50 (SK-MEL-28 melanoma) of the same molecule?
A: 1.75 µM

Q: What about the TGI (SK-MEL-28 melanoma) of the same molecule?
A: 3.26 µM

Q: And the GI50 (SK-MEL-5 melanoma)?
A: 1.36 µM

Q: And the TGI (SK-MEL-5 melanoma)?
A: 2.67 µM

Q: What about the GI50 (T-47D breast) of the same molecule?
A: 1.65 µM

Q: What about the TGI (T-47D breast) of the same molecule?
A: 5.44 µM

Q: Which TGI (MCF7 breast) does the source give for `CC(CC(=O)O)(CC(=O)O)C(=O)O` here?
A: > 100 µM

Q: What about the TGI (MDA-MB-435) of the same molecule?
A: > 100 µM

Q: And the TGI (SF-539 CNS)?
A: > 100 µM

Q: And the TGI (SK-MEL-28 melanoma)?
A: > 100 µM

Q: And the TGI (SK-MEL-5 melanoma)?
A: > 100 µM

Q: What about the TGI (T-47D breast) of the same molecule?
A: > 100 µM

Q: `CN1C(=O)c2cc(Cl)nc3c(NC(=O)c4cccc(Cl)c4)c(Cl)c(NC(=O)c4cccc(Cl)c4)c1c23` was tested. Which GI50 (MCF7 breast) did it give?
A: 1.94 µM

Q: And the TGI (MCF7 breast)?
A: 6.26 µM

Q: And the GI50 (MDA-MB-435)?
A: 1.7 µM

Q: And the TGI (MDA-MB-435)?
A: 3.2 µM

Q: What about the GI50 (SF-539 CNS) of the same molecule?
A: 1.67 µM

Q: What about the TGI (SF-539 CNS) of the same molecule?
A: 3.39 µM

Q: What about the GI50 (SK-MEL-28 melanoma) of the same molecule?
A: 1.78 µM

Q: And the TGI (SK-MEL-28 melanoma)?
A: 3.45 µM

Q: And the GI50 (SK-MEL-5 melanoma)?
A: 2.09 µM

Q: What about the TGI (SK-MEL-5 melanoma) of the same molecule?
A: 4.36 µM

Q: What about the GI50 (T-47D breast) of the same molecule?
A: 1.77 µM

Q: What about the TGI (T-47D breast) of the same molecule?
A: 4.32 µM

Q: What does the source list for `COc1ccccc1Cn1cc2c(c1)-c1oncc1CC2`?
A: GI50 (MCF7 breast): 0.381 µM; TGI (MCF7 breast): > 66.5 µM; GI50 (MDA-MB-435): 0.208 µM; TGI (MDA-MB-435): 0.545 µM; GI50 (SF-539 CNS): 0.453 µM; TGI (SF-539 CNS): 5.13 µM; GI50 (SK-MEL-28 melanoma): 2.52 µM; TGI (SK-MEL-28 melanoma): > 100 µM; GI50 (SK-MEL-5 melanoma): 0.45 µM; TGI (SK-MEL-5 melanoma): 6.77 µM; GI50 (T-47D breast): 2.15 µM; TGI (T-47D breast): > 100 µM
